Measurements reported in patent US20250352541A1, “THERAPEUTIC FOR CANCER REFRACTORY TO IMMUNE CHECKPOINT INHIBITOR” (Sumitomo Pharma Co., Ltd., priority 2022, published 2025).

Experiments:
hERG current = hERG current (Homo sapiens (Human), UniProt Q12809); experiment: hERG current blocking test; conditions: for hERG/CHK1: IC50 of hERG divided by IC50 of CHK1 inhibition; for IC50: read-out: hERG inhibition IC50, hERG expressing CHO cells
CHK1 = CHK1 (Homo sapiens (Human), UniProt O14757); experiment: CHK1 inhibitory activity test (IMAP TR-FRET)
ES-2 cells = experiment: Cell growth suppression experiment; format: cell-based
Protocol: ES-2 cells were obtained from the American Type Culture Collection (ATCC). These cells were cultured at 37° C. in the presence of 5% CO2 in a 10% fetal bovine serum, 1% penicillin/streptomycin containing McCoy's 5a medium.
500 cells were seeded for each well in a 384-well plate, and the evaluated compound was added so that the final concentration of DMSO would be 0.1% to culture the cells for 2 days. After completion of the culture, the cell viability rate was calculated using CellTiter-Glo® 3D Reagent (Promega, G968B).
The results of cell growth suppression test on representative compounds of the present disclosure are listed in the following table based on the ranking of I, IT, III, IV, and V (1000 nM<I, 1000 nM>TI>300 nM, 300 nM>III>100 nM, 100 nMV>IV>30 nM, 30 nM>V).

Chain of hERG current (Q12809 whole entry): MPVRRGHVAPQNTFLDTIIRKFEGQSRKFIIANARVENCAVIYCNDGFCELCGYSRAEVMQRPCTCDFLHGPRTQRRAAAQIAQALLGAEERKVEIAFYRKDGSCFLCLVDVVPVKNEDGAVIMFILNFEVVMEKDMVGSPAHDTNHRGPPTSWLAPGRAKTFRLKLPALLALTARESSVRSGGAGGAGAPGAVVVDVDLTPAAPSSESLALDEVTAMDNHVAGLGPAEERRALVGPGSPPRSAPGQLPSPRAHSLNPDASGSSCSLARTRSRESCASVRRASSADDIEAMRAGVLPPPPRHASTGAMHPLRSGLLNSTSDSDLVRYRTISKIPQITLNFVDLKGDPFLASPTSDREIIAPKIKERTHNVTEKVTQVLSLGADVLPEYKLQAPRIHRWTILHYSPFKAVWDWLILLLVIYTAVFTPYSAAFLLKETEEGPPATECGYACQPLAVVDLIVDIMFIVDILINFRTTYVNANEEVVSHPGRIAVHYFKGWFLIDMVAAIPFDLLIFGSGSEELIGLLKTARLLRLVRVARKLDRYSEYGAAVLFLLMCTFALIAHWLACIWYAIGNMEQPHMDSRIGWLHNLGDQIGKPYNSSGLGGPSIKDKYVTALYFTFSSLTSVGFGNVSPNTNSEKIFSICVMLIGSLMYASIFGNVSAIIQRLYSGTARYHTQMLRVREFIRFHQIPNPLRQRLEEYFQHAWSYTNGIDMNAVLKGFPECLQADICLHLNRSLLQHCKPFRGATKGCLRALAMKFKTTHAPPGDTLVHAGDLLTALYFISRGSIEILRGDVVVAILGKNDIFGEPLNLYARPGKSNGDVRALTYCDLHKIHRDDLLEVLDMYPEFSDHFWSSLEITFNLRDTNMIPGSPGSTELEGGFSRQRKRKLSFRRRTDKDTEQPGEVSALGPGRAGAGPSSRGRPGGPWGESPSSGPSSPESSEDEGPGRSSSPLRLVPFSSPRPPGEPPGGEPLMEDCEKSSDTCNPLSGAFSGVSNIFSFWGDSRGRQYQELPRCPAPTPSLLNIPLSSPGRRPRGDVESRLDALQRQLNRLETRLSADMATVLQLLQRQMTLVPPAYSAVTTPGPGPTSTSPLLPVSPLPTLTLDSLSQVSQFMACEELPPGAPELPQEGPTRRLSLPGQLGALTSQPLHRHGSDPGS
Chain of CHK1 (O14757 whole entry): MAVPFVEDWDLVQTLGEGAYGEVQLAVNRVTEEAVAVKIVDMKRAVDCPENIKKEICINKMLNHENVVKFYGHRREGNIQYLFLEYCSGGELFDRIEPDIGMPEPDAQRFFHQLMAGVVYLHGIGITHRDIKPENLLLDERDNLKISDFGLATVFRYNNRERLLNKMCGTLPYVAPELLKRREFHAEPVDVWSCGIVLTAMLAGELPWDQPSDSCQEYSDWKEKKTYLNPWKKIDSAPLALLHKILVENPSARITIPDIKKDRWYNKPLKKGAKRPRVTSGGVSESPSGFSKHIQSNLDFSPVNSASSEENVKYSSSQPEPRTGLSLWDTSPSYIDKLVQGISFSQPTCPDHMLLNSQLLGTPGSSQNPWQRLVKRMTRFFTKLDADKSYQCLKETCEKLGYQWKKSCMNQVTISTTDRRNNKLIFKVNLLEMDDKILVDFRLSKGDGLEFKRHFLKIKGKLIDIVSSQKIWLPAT

Compound	hERG/CHK1 (hERG current)	IC50 (hERG current) [nM]	IC50 (CHK1) [nM]	effect of suppressing CHK1 activity compared with prexasertib (CHK1)	cell growth suppression effect compared with prexasertib (ES-2 cells)
COc1ccnc(OCCCN)c1-c1cc(Nc2cnc(C(F)(F)F)cn2)n[nH]1 [Example 16, N-{5-[2-(3-aminopropoxy)-4-methoxypyridin-3-yl]-1-H-pyrazol-3-yl}-5-(trifluoromethyl)pyrazin-2-amine]	<888	< 2700	3.04	–	–
COc1cncc(OC[C@@H]2CNCCO2)c1-c1cc(Nc2cnc(C#N)cn2)n[nH]1 (stereo in doubt) [Example 12, 5-[(5-{3-methoxy-5-[(morpholin-2-yl)methoxy]pyridin-4-yl}-1H-pyrazol-3-yl)amino]pyrazine-2-carbonitrile]	9118	3100	0.34	more potent effect of suppressing CHK1 activity than prexasertib	–
COc1cncc(O[C@H](C)C2CNC2)c1-c1cc(Nc2cnc(C#N)cn2)n[nH]1 [Example 33, 5-[(5-{3-[(1R)-1-(azetidin-3-yl)ethoxy]-5-methoxypyridin-4-yl}-1H-pyrazol-3-yl)amino]pyrazine-2-carbonitrile]	–	–	0.69	–	excellent cell growth suppression effect that is equivalent to that of prexasertib
COc1nccc(OCCCN)c1-c1cc(Nc2cnc(C#N)cn2)n[nH]1 [Example 4, 5-({5-[4-(3-aminopropoxy)-2-methoxypyridin-3-yl]-1H-pyrazol-3-yl}amino)pyrazine-2-carbonitrile]	–	–	0.23	more potent effect of suppressing CHK1 activity than prexasertib	excellent cell growth suppression effect that is equivalent to that of prexasertib
COc1cncc(O[C@@H]2CCC[C@H](N)C2)c1-c1cc(Nc2cnc(C#N)cn2)n[nH]1 [Example 19, 5-{[5-(3-{[(1R,3S)-3-aminocyclohexyl]oxy}-5-methoxypyridin-4-yl)-1H-pyrazol-3-yl]amino}pyrazine-2-carbonitrile]	–	–	0.26	more potent effect of suppressing CHK1 activity than prexasertib	excellent cell growth suppression effect that is equivalent to that of prexasertib
CNCCCOc1cncc(OC)c1-c1cc(Nc2cnc(C#N)cn2)n[nH]1 [Example 31, 5-[(5-{3-methoxy-5-[3-(methylamino)propoxy]pyridin-4-yl}-1H-pyrazol-3-yl)amino]pyrazine-2-carbonitrile]	–	–	0.75	–	excellent cell growth suppression effect that is equivalent to that of prexasertib
COc1cncc(OC[C@]2(F)CCNC2)c1-c1cc(Nc2cnc(C#N)cn2)n[nH]1 [Example 20, (S)-5-[(5-{3-[(3-fluoropyrrolidin-3-yl)methoxy]-5-methoxypyridin-4-yl}-1H-pyrazol-3-yl)amino]pyrazine-2-carbonitrile]	11176	3800	0.34	more potent effect of suppressing CHK1 activity than prexasertib	excellent cell growth suppression effect that is equivalent to that of prexasertib
COc1cncc(O[C@H]2C[C@H](N)[C@H]3C[C@H]32)c1-c1cc(Nc2cnc(C#N)cn2)n[nH]1 [Example 36, 5-{[5-(3-{[(1R,2S,4S,5S)-4-aminobicyclo[3.1.0]hexan-2-yl]oxy}-5-methoxypyridin-4-yl)-1H-pyrazol-3-yl]amino}pyrazine-2-carbonitrile]	–	–	0.73	–	excellent cell growth suppression effect that is equivalent to that of prexasertib
COc1ncnc(OCC2(CN)CC2)c1-c1cc(Nc2cnc(C#N)cn2)n[nH]1 [Example 23, 5-{[5-(4-{[1-(aminomethyl)cyclopropyl]methoxy}-6-methoxypyrimidin-5-yl)-1H-pyrazol-3-yl]amino}pyrazine-2-carbonitrile]	–	–	0.79	–	excellent cell growth suppression effect that is equivalent to that of prexasertib
COc1cncc(OCCCN)c1-c1cc(Nc2cnc(C#N)cn2)n[nH]1 [Example 3, 5-({5-[3-(3-aminopropoxy)-5-methoxypyridin-4-yl]-1H-pyrazol-3-yl}amino)pyrazine-2-carbonitrile]	–	–	0.22	more potent effect of suppressing CHK1 activity than prexasertib	excellent cell growth suppression effect that is equivalent to that of prexasertib
COc1cncc(OCC2(C)CNC2)c1-c1cc(Nc2cnc(C#N)cn2)n[nH]1 [Example 25, 5-[(5-{3-methoxy-5-[(3-methylazetidin-3-yl)methoxy]pyridin-4-yl}-1H-pyrazol-3-yl)amino]pyrazine-2-carbonitrile]	–	–	0.74	–	excellent cell growth suppression effect that is equivalent to that of prexasertib
COc1cncc(OC[C@H](C)CN)c1-c1cc(Nc2cnc(C#N)cn2)n[nH]1 [Example 28]	–	–	0.5	more potent effect of suppressing CHK1 activity than prexasertib	excellent cell growth suppression effect that is equivalent to that of prexasertib
COc1nccc(OCC2(CN)CC2)c1-c1cc(Nc2cnc(C#N)cn2)n[nH]1 [Example 38, 5-{[5-(4-{[1-(aminomethyl)cyclopropyl]methoxy}-2-methoxypyridin-3-yl)-1H-pyrazol-3-yl]amino}pyrazine-2-carbonitrile]	–	–	0.7	–	excellent cell growth suppression effect that is equivalent to that of prexasertib
COc1cncc(OC[C@H]2CCNC2)c1-c1cc(Nc2cnc(C#N)cn2)n[nH]1 [Example 21, (S)-5-[(5-{3-methoxy-[5-(pyrrolidin-3-yl)methoxy]pyridin-4-yl}-1H-pyrazol-3-yl)amino]pyrazine-2-carbonitrile]	–	–	0.29	more potent effect of suppressing CHK1 activity than prexasertib	excellent cell growth suppression effect that is equivalent to that of prexasertib
COc1cncc(OC[C@@]2(F)CCNC2)c1-c1cc(Nc2cnc(C#N)cn2)n[nH]1 [Example 22, (R)-5-[(5-{3-[(3-fluoropyrrolidin-3-yl)methoxy]-5-methoxypyridin-4-yl}-1H-pyrazol-3-yl)amino]pyrazine-2-carbonitrile]	12500	3000	0.24	more potent effect of suppressing CHK1 activity than prexasertib	excellent cell growth suppression effect that is equivalent to that of prexasertib
COc1cncc(OC[C@H]2CNCCO2)c1-c1cc(Nc2cnc(C#N)cn2)n[nH]1 (stereo in doubt) [Example 13, 5-[(5-{3-methoxy-5-[(morpholin-2-yl)methoxy]pyridin-4-yl}-1H-pyrazol-3-yl)amino]pyrazine-2-carbonitrile]	<3649	< 2700	0.74	–	–
COc1cncc(OCC2(CN)CC2)c1-c1cc(Nc2cnc(C#N)cn2)n[nH]1 [Example 11, 5-{[5-(3-{[1-(aminomethyl)cyclopropyl]methoxy}-5-methoxypyridin-4-yl)-1H-pyrazol-3-yl]amino}pyrazine-2-carbonitrile]	–	–	0.18	more potent effect of suppressing CHK1 activity than prexasertib	excellent cell growth suppression effect that is equivalent to that of prexasertib
COc1cncc(OCC2(C(F)F)CNC2)c1-c1cc(Nc2cnc(C#N)cn2)n[nH]1 [Example 26, 5-{[5-(3-{[3-(difluoromethyl)azetidin-3-yl]methoxy}-5-methoxypyridin-4-yl)-1H-pyrazol-3-yl]amino}pyrazine-2-carbonitrile]	–	–	0.14	more potent effect of suppressing CHK1 activity than prexasertib	excellent cell growth suppression effect that is equivalent to that of prexasertib
COc1cncc(OC[C@@H](C)CN)c1-c1cc(Nc2cnc(C#N)cn2)n[nH]1 [Example 27]	–	–	3.46	–	excellent cell growth suppression effect that is equivalent to that of prexasertib
COc1ccnc(OCCCN)c1-c1cc(Nc2cnc(Cl)cn2)n[nH]1 [Example 15, N-{5-[2-(3-aminopropoxy)-4-methoxypyridin-3-yl]-1-H-pyrazol-3-yl}-5-chloropyrazin-2-amine]	–	–	0.26	more potent effect of suppressing CHK1 activity than prexasertib	excellent cell growth suppression effect that is equivalent to that of prexasertib
COc1nccc(OCC2(C)CNC2)c1-c1cc(Nc2cnc(C#N)cn2)n[nH]1 [Example 6, 5-[(5-{2-methoxy-4-[(3-methylazetidin-3-yl)methoxy]pyridin-3-yl}-1H-pyrazol-3-yl)amino]pyrazine-2-carbonitrile]	–	–	0.27	more potent effect of suppressing CHK1 activity than prexasertib	excellent cell growth suppression effect that is equivalent to that of prexasertib
